Measured values taken from paper PMC6791019, “(−)-Epigallocatechin-3-gallate derivatives combined with cisplatin exhibit synergistic inhibitory effects on non-small-cell lung cancer cells” (Cancer Cell International, 2019).

How the values were obtained:
NCI-H441 cells [1] = assay: Annexin V-FITC/PI apoptosis assay by flow cytometry; format: cell-based, human; settings: NCI-H441, 48 h
Experimental: Cell apoptosis was quantified using an annexin V/propidium iodide (PI) detection kit (BD Biosciences, PA, USA) and flow cytometry. Cells (5 × 10^5/well) were plated in six-well dishes and then treated with the EGCG derivatives with or without cDDP. After the treatment, the collected cells were incubated in 100 µL of binding buffer and 5 µL of FITC annexin V and 10 µL of PI were added to the suspension. The mixtures were gently vortexed and then incubated for 15 min at room temperature in the dark before performing the flow cytometry measurements (BD FACSCalibur) within 1 h.

Caco-2 cell monolayers = assay: Transport across Caco-2 cell monolayers; format: in vitro ADME, human; settings: Caco-2, 50 µg/mL, A→B
Experimental: (§1) Caco-2 cells were grown as epithelial monolayers, seeded onto fibrillar collagen-coated polyethylene terephthalate (PET) Corning transwell inserts (1.12 cm^2) with a pore size of 3 μm at a density of 2.0 × 10^5 cells/insert, and incubated at 37 °C in an atmosphere of 5% CO2 and 95% relative humidity in complete DMEM. The medium was replaced every 2 days with 0.5 mL medium in the apical (AP) side and 1.5 mL in the basolateral (BL) side over a period of 21 days. The integrity of the cell monolayer was determined by measuring the TEER (transepithelial electrical resistance) using an epithelial voltohmmeter (EVOM). The TEER values for each monolayer were measured every 2 days until they exceeded 350 Ω cm^2. To ensure the integrity of the Caco-2 monolayers, the TEER values were monitored before and after the experiments.
(§2) To measure the transport of EGCG and compound 3 across the Caco-2 cell monolayer, both sides of the transwell were equilibrated for 30 min with warm Hank’s balanced salt solution (HBSS). The transport buffer containing EGCG and compound 3 was added to either the apical (0.5 mL) or the basolateral (1.5 mL) side of the insert, while the receiving compartment contained the corresponding volume of transport buffer. After incubation for 30 or 60 min, 100 μL samples were taken from the receiving chamber and immediately replenished with an equal volume of pre-warmed HBSS. The samples were acidified with an equal volume of 5% formic acid and then frozen until LC–MS analysis.
(§3) The apparent permeability coefficients (Papp) of the compounds were calculated using the following equation: Papp=dQ/dt×1/A·C0, where dQ/dt is the amount of solute transported across the Caco-2 barrier in time dt, C0 is the solute concentration in the apical compartment at time zero, and A is the cross-sectional area of the epithelium in contact with the apical solution.

[2] = Transport across Caco-2 cell monolayers; format: in vitro ADME, human; settings: human; for Papp A→B at 30 min, 50 μg/mL / Papp A→B at 60 min, 50 μg/mL / Papp B→A at 30 min, 50 μg/mL / Papp B→A at 60 min, 50 μg/mL: Caco-2, 50 μg/mL; for Papp A→B at 30 min, 50 μg/mL / Papp A→B at 60 min, 50 μg/mL: apical to basolateral; for Papp B→A at 30 min, 50 μg/mL / Papp B→A at 60 min, 50 μg/mL: basolateral to apical; for Papp: Caco-2, summary of Table 1, read-out: apparent permeability coefficients (Papp), range over directions and times
Experimental: as §1, §2, §3

NCI-H1975 cells = assay: MTT cell proliferation assay, NCI-H1975; format: cell-based, human; settings: 0-150 µM, 48 h
Experimental: (§4) The effects of the EGCG derivatives on the survival of NSCLC cells were determined using the MTT assay. A549, NCI-H441, and NCI-H1975 cells were seeded in 96-well plates (3 × 10^4 cells/well) and then treated with one of the EGCG derivatives alone (0, 30, 60, 90, 120, or 150 µM), cDDP alone (12 µM), or 12 μM cDDP plus one of the EGCG derivatives (100 µM) for 48 h. MTT was then added to the cells and the plates were incubated for a further 4 h. After removal of the culture medium, the produced MTT formazan crystals were dissolved with 150 µL DMSO and measured at 492 nm using a microplate reader. The percentage of inhibition was calculated as follows: inhibition ratio (IR, %) = (1 − OD(sample)/OD(control)) × 100%. The experiments were carried out in triplicate, and the IC50 (the concentration of drug that inhibits cell growth by 50%) values were determined.

NCI-H441 cells [3] = assay: MTT cell proliferation assay, NCI-H441; format: cell-based, human; settings: 0-150 µM, 48 h
Experimental: as §4

[4] = test system: EGFR signaling pathway in NCI-H441 cells; assay: Western blotting of EGFR signaling pathway proteins; format: cell-based, human; settings: NCI-H441, western blot after 12 h
Experimental: (§5) Samples containing equal amounts of proteins as indicated in the text were resolved by SDS polyacrylamide gel electrophoresis and transferred to PVDF membranes. The membranes were blocked with 5% BSA at room temperature for 1 h and then probed with primary antibodies overnight at 4 °C and incubated with the HRP-conjugated secondary antibodies for 1 h at room temperature. HRP was detected using the Pro-light HRP Chemiluminescent Kit (Tiangen Biotech, Beijing, China) and FluorChem E System (ProteinSimple, Santa Clara, CA, United States).

A549 cells = assay: MTT cell proliferation assay, A549; format: cell-based, human; settings: 0-150 µM, 48 h
Experimental: as §4

NCI-H441 cells [5] = assay: Cell cycle analysis by PI staining and flow cytometry; format: cell-based, human; settings: NCI-H441, 0, 50, 100, 150 μM
Experimental: Aliquots of 5 × 10^5 cells were harvested, washed with phosphate-buffered saline (PBS), and then fixed in 70% ethanol at 4 °C overnight. After fixation, the cells were washed twice with cold PBS and stained in binding buffer containing 1 µg/mL of propidium iodide (BD Biosciences) and RNase for 0.5 h. The samples were then analyzed by flow cytometry (BD FACSCalibur).

NCI-H441 xenograft = NCI-H441 xenograft model in nude mice; format: in vivo, BALB-C/nude mice; settings: for tumor growth compared with the control: compound 3 200 mg/kg per day, cDDP 2 mg/kg per 2 days, i.p., nude mice
Experimental: Twenty-four male BALB-C/nude mice were purchased from the Cavens Lab Animal (Changzhou, China). The mice were subcutaneously injected in the dorsal with NCI-H441 cells (4 × 10^6/0.2 mL PBS per mouse). The mice were randomly divided into four groups, including control, compound 3, cDDP, and compound 3 plus cDDP (n = 6, per group). The mice were treated with compound 3 (200 mg/kg per day) and cDDP (2 mg/kg per 2 days) alone or in combination. All drugs were given through intra-peritoneal injection. Tumour size was measured once every 2 days with a calipre (volume mm^3 = length × width × width/2). Body weight was recorded once every 2 days. After there weeks of treatment, all mice were euthanized by cervical dislocation and the tumors were excised into formalin, and portion of the tumor fresh frozen in liquid nitrogen for further processing and analysis.
Three micrometer sections were cut, deparaffinized in xylenes, rehydrated in ethanol, and washed in phosphate-buffered saline. The antigen was retrieved at 95 °C for 20 min in 0.01 M citrate buffer (pH 6.0). Then incubated with primary antibodies overnight at 4 °C, followed by incubation with the secondary antibody at RT for 1 h. The immunostaining was performed using DAB, and counterstained with hematoxylin.

NCI-H441 cells [6] = assay: Western blotting of cell cycle and apoptosis proteins; format: cell-based, human; settings: NCI-H441, western blot, cDDP alone
Experimental: as §5

SMILES	number of apoptotic cells compared to untreated control (NCI-H441 cells [1])	transepithelial transport rate, apical to basolateral, fold higher than EGCG (Caco-2 cell monolayers)	Papp A→B at 30 min, 50 μg/mL [2]	Papp A→B at 60 min, 50 μg/mL [2]	Papp B→A at 30 min, 50 μg/mL [2]	Papp B→A at 60 min, 50 μg/mL [2]	Papp [2]	proliferation of NCI-H1975 cells (NCI-H1975 cells)	proliferation of NCI-H441 cells (NCI-H441 cells [3])	P-EGFR, P-AKT and P-ERK levels [4]	proliferation of A549 cells (A549 cells)	cell cycle distribution, effect of increasing doses (NCI-H441 cells [5])	nude mouse body weight compared with the control group (NCI-H441 xenograft; compound 3 200 mg/kg per day i.p.)	tumor growth compared with the control (NCI-H441 xenograft)	levels of PCNA, p53, p21, cyclin D1 and cyclin E (NCI-H441 cells [6])
O=C(O[C@@H]1Cc2c(OCc3cnnn3[C@@H]3O[C@H](CO)[C@@H](O)[C@H](O)[C@H]3O)cc(O)cc2O[C@@H]1c1cc(O)c(O)c(O)c1)c1cc(O)c(O)c(O)c1 [compound 3, (2R,3R)-7-Hydroxy-5-((1-((2R,3R,4S,5S,6R)-3,4,5-trihydroxy-6-(hydroxymethyl)tetrahydro-2H-pyran-2-yl)-1H-1,2,3-triazol-5-yl)methoxy)-2-(3,4,5-trihydroxyphenyl)chroman-3-yl 3,4,5-trihydroxybenzoate]	significantly increased in a concentration-dependent manner	4.9 fold	0.914 ×10⁻⁶ cm/s	0.41 ×10⁻⁶ cm/s	0.83 ×10⁻⁶ cm/s	0.39 ×10⁻⁶ cm/s	0.083 to 0.914 ×10⁻⁶ cm/s	the same effect was not observed	substantial dose-dependent growth inhibition	effectively inhibited these phosphorylation proteins in a dose-dependent manner	the same effect was not observed	increased the proportion of cells in the S phase in a dose-dependent manner	did not reduce the nude mouse body weight	reduced tumor growth	–
O=C(O[C@@H]1Cc2c(O)cc(O)cc2O[C@@H]1c1cc(O)c(O)c(O)c1)c1cc(O)c(O)c(O)c1 [EGCG, (−)-epigallocatechin-3-gallate]	–	–	0.189 ×10⁻⁶ cm/s	0.32 ×10⁻⁶ cm/s	0.89 ×10⁻⁶ cm/s	0.083 ×10⁻⁶ cm/s	0.083 to 0.914 ×10⁻⁶ cm/s	–	–	–	–	–	–	–	–
[NH2][Pt]([NH2])([Cl])[Cl] [cDDP, cisplatin]	–	–	–	–	–	–	–	–	–	–	–	–	–	reduced tumor growth	minimal effects
